From the supplement of paper PMC10307832

compound: CCOC(=O)CCNc1cc(N2CCc3ccccc3CC2)nc(-c2ccccn2)n1 [GSK-J4] + Cc1cc(Nc2cc(N3CCN(C)CC3)nc(Sc3ccc(NC(=O)C4CC4)cc3)n2)n[nH]1 [Tozasertib] (partner 0.1 µM); assay: relative viability (nuclei count vs DMSO), 5 days (fraction); higher = more cells survive; settings: first compound 0.5 µM
Procedure, shortened: (§1)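 Cells from lung cancer lines were seeded into 1536-well plates and, one day later, dosed by pin tool. Treatments were either a single drug or a fixed dose of an anchor drug with five library-drug doses (not always all listed) in √10 steps. After 5 days, nuclei were stained in a one-step fixation (final 0.05% Triton X-100, 1% formaldehyde, 1 ug/ml Hoechst) and counted on 4× images, and relative viability is the treated-to-vehicle nuclei ratio, as the median of duplicate plates.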

Cell Line	relative viability
LCLC-103H	0.515
LXF-289	0.198
NCI-H358	0.087
NCI-H322M	0.457
LC-2-ad	0.429
HCC-827	0.408
CAL-12T	0.304
HCC-15	0.393
HOP-62	0.344
NCI-H460	0.41
LU99A	0.233
NCI-H2085	0.765
A-427	0.233
NCI-H838	0.299
NCI-H596	0.953

same assay, conditions: first compound 1.581 µM

Cell Line	relative viability
LCLC-103H	0.434
LXF-289	0.154
NCI-H358	0.0898
NCI-H322M	0.393
LC-2-ad	0.377
HCC-827	0.434
CAL-12T	0.324
HOP-62	0.335
NCI-H460	0.387
LU99A	0.276
NCI-H2085	0.733
NCI-H838	0.26
NCI-H596	0.891

same assay, conditions: first compound 5 µM

Cell Line	relative viability
LCLC-103H	0.526
LXF-289	0.132
NCI-H358	0.0969
NCI-H322M	0.484
LC-2-ad	0.41
HCC-827	0.44
CAL-12T	0.336
HCC-15	0.344
HOP-62	0.358
NCI-H460	0.344
NCI-H2085	0.756
A-427	0.22
NCI-H596	0.971

same assay, conditions: first compound 15.81 µM

Cell Line	relative viability
LCLC-103H	0.444
LXF-289	0.166
NCI-H358	0.113
NCI-H322M	0.442
LC-2-ad	0.399
HCC-827	0.4
CAL-12T	0.264
HCC-15	0.319
HOP-62	0.339
NCI-H460	0.294
LU99A	0.281
NCI-H2085	0.806
A-427	0.18
NCI-H838	0.26
NCI-H596	0.847

same assay, conditions: first compound 50 µM

Cell Line	relative viability
LCLC-103H	0.332
LXF-289	0.204
NCI-H358	0.129
NCI-H322M	0.507
LC-2-ad	0.36
HCC-827	0.362
CAL-12T	0.357
HCC-15	0.2
HOP-62	0.24
NCI-H460	0.283
LU99A	0.253
NCI-H2085	0.652
A-427	0.157
NCI-H838	0.21
NCI-H596	0.691

compound: CCOC(=O)CCNc1cc(N2CCc3ccccc3CC2)nc(-c2ccccn2)n1 [GSK-J4] + NC(=O)Nc1cc(-c2cccc(F)c2)sc1C(=O)N[C@H]1CCCNC1 [AZD7762] (partner 0.2 µM); assay: as above; settings: first compound 0.5 µM
Procedure, shortened: as §1

Cell Line	relative viability
LCLC-103H	0.811
LXF-289	1.09
NCI-H358	0.598
NCI-H322M	0.618
LC-2-ad	0.845
HCC-827	0.203
CAL-12T	0.705
HCC-15	1.19
HOP-62	0.555
NCI-H460	0.645
LU99A	0.277
NCI-H2085	0.926
A-427	0.684
NCI-H838	0.971
NCI-H596	1.18

same assay, conditions: first compound 1.581 µM

Cell Line	relative viability
LCLC-103H	0.76
LXF-289	0.836
NCI-H358	0.576
NCI-H322M	0.506
LC-2-ad	0.756
HCC-827	0.565
CAL-12T	0.646
HCC-15	1.09
HOP-62	0.573
LU99A	0.249
NCI-H2085	0.896
A-427	0.441
NCI-H838	0.681
NCI-H596	1.12

same assay, conditions: first compound 5 µM

Cell Line	relative viability
LCLC-103H	0.525
LXF-289	0.742
NCI-H358	0.692
NCI-H322M	0.555
LC-2-ad	0.634
HCC-827	0.252
CAL-12T	0.557
HCC-15	1.12
HOP-62	0.45
NCI-H2085	0.888
NCI-H838	0.76
NCI-H596	1.01

same assay, conditions: first compound 15.81 µM

Cell Line	relative viability
LCLC-103H	0.69
LXF-289	1.07
NCI-H358	0.606
NCI-H322M	0.636
LC-2-ad	0.785
HCC-827	0.197
CAL-12T	0.649
HCC-15	0.982
HOP-62	0.592
NCI-H460	0.65
LU99A	0.244
NCI-H2085	0.792
A-427	0.576
NCI-H838	0.874
NCI-H596	0.926

same assay, conditions: first compound 50 µM

Cell Line	relative viability
LCLC-103H	0.65
LXF-289	0.987
NCI-H358	0.44
NCI-H322M	0.536
LC-2-ad	0.81
HCC-827	0.21
CAL-12T	0.675
HCC-15	1.22
HOP-62	0.451
NCI-H460	0.555
LU99A	0.126
NCI-H2085	0.936
A-427	0.328
NCI-H838	0.789
NCI-H596	1.12

compound: CN1CCC(CC1)OC2=CC(=C(C=C2)NC3=NC=C4C(=N3)N(C(=O)N4C)C5CCCC5)OC [AZ3146] + Cc1nc(NC(=O)N2CCC[C@H]2C(N)=O)sc1-c1ccnc(C(C)(C)C(F)(F)F)c1 [Alpelisib] (partner 2 µM); assay: as above; settings: first compound 0.08 µM
Procedure, shortened: as §1

Cell Line	relative viability
LCLC-103H	0.985
LXF-289	1.02
NCI-H358	0.897
NCI-H322M	0.759
LC-2-ad	0.793
HCC-827	1.02
CAL-12T	1.21
HCC-15	0.939
HOP-62	0.896
NCI-H460	0.375
LU99A	0.494
NCI-H2085	0.993
A-427	1.04
NCI-H838	0.95
NCI-H596	0.482

same assay, conditions: first compound 0.253 µM

Cell Line	relative viability
LCLC-103H	0.886
LXF-289	1
NCI-H358	0.741
NCI-H322M	0.83
LC-2-ad	0.797
HCC-827	0.976
CAL-12T	1.31
HCC-15	0.899
HOP-62	0.96
NCI-H460	0.466
LU99A	0.564
NCI-H2085	0.947
A-427	1.06
NCI-H838	1.06
NCI-H596	0.484

same assay, conditions: first compound 0.8 µM

Cell Line	relative viability
LCLC-103H	0.859
LXF-289	0.96
NCI-H358	0.783
NCI-H322M	0.699
LC-2-ad	0.866
HCC-827	1.08
CAL-12T	1.36
HCC-15	0.864
HOP-62	0.796
NCI-H460	0.478
LU99A	0.515
NCI-H2085	0.94
A-427	1.01
NCI-H838	0.883
NCI-H596	0.489

same assay, conditions: first compound 2.53 µM

Cell Line	relative viability
LCLC-103H	1.03
LXF-289	1.06
NCI-H358	0.889
NCI-H322M	0.807
LC-2-ad	0.956
HCC-827	0.921
CAL-12T	1.31
HCC-15	0.822
HOP-62	1.07
NCI-H460	0.573
LU99A	0.606
NCI-H2085	0.99
A-427	0.93
NCI-H838	0.985
NCI-H596	0.487

same assay, conditions: first compound 8 µM

Cell Line	relative viability
LCLC-103H	0.99
LXF-289	0.946
NCI-H358	0.78
NCI-H322M	0.785
LC-2-ad	0.792
HCC-827	0.968
CAL-12T	0.765
HCC-15	0.893
HOP-62	0.832
NCI-H460	0.254
LU99A	0.438
NCI-H2085	0.808
A-427	1.02
NCI-H838	0.858
NCI-H596	0.428

compound: CCOC(=O)CCNc1cc(N2CCc3ccccc3CC2)nc(-c2ccccn2)n1 [GSK-J4] + COc1cc2c(Oc3ccc(NC(=O)C4(C(=O)Nc5ccc(F)cc5)CC4)cc3F)ccnc2cc1OCCCN1CCOCC1 [Foretinib] (partner 0.25 µM); assay: as above; settings: first compound 0.5 µM
Procedure, shortened: as §1

Cell Line	relative viability
LCLC-103H	0.8
LXF-289	0.974
NCI-H358	0.677
NCI-H322M	1.01
LC-2-ad	0.909
HCC-827	1.02
CAL-12T	1.11
HCC-15	0.949
HOP-62	1
NCI-H460	0.977
LU99A	0.731
NCI-H2085	0.697
A-427	1.05
NCI-H838	1.03
NCI-H596	0.928

same assay, conditions: first compound 1.581 µM

Cell Line	relative viability
LCLC-103H	0.617
LXF-289	0.93
NCI-H358	0.684
NCI-H322M	0.884
LC-2-ad	0.763
HCC-827	1.07
CAL-12T	0.703
HOP-62	0.882
NCI-H460	0.81
LU99A	0.78
NCI-H2085	0.882
NCI-H838	1.02
NCI-H596	0.657

same assay, conditions: first compound 5 µM

Cell Line	relative viability
LCLC-103H	0.789
LXF-289	1.01
NCI-H358	0.639
NCI-H322M	1.27
LC-2-ad	0.868
HCC-827	1.05
CAL-12T	1.11
HCC-15	0.898
HOP-62	1.02
NCI-H460	0.732
NCI-H2085	0.861
A-427	1.11
NCI-H596	0.892

same assay, conditions: first compound 15.81 µM

Cell Line	relative viability
LCLC-103H	0.593
LXF-289	0.929
NCI-H358	0.616
NCI-H322M	0.815
LC-2-ad	0.781
HCC-827	0.955
CAL-12T	1.04
HCC-15	0.854
HOP-62	1.03
NCI-H460	1
LU99A	0.809
NCI-H2085	1.05
A-427	0.532
NCI-H838	0.853
NCI-H596	0.673

same assay, conditions: first compound 50 µM

Cell Line	relative viability
LCLC-103H	0.52
LXF-289	0.924
NCI-H358	0.631
NCI-H322M	0.712
LC-2-ad	0.775
HCC-827	0.847
CAL-12T	1.02
HCC-15	0.69
HOP-62	0.766
NCI-H460	0.871
LU99A	0.523
NCI-H2085	0.971
A-427	0.218
NCI-H838	0.738
NCI-H596	0.823
